# Data taken from US6569633B1, “Modulation of the sulfonylurea receptor and calcium in adipocytes for treatment of obesity/diabetes” (Artecel Science, Inc., priority 1998, dated 2003).
# Experiments:
# Format in all cases: cell-based
# human adipocytes [1] = assay: Lipolysis (glycerol release into the culture medium) in human adipocytes
# Protocol: FIG. 4. The anti-lipolytic effect of glibenclamide in human adipocytes. Activation of lipolysis in adipocytes is typically measured by release of glycerol into the media. Human adipocytes were treated with 10 μM glibenclamide alone, 10 μM glibenclamide plus 10 μM diazoxide or 10 μM glibenclamide plus 30 μM nitrendipine for 48 hr. Glycerol release was determined as described (19). *p<0.01 vs. Control.
# Human adipocytes were examined for changes in lipolysis regulation by measurement of glycerol release into the media. Glycerol was measured by using a standard method (19), although other techniques for measuring glycerol would be equally useful.
# Human subcutaneous abdominal adipose tissue was obtained from patients undergoing elective abdominal cosmetic surgery, although other types of adipose tissue, such as mesenteric, retroperitoneal, perirenal, or omental may be useful in identifying these compounds. Preadipocytes are isolated by collagenase treatment of the tissue and cultured adipocytes prepared as described (patent filed; Jan. 29, 1999; Ser. No. 09/240,029). Agents that regulate calcium flux in adipocytes as noted above can mediate lipolysis. Human adipocytes may be cultured in multi-well plates with different treatments between 1 hour or 24 hours as indicated, and glycerol release into the culture medium was determined as an indicator for lipolysis using a one-step enzymatic fluorometric method. The media collected from 1 hr treatments were used directly for glycerol measurements. For 24 hr treatments, media were removed, and cells were washed with Hank's Balanced Salt Solution and incubated in fresh medium for a further 10-60 min. This media were then used for glycerol measurements for 24 hr treatments.
# We next investigated the role of adipocyte SUR1 on lipolysis. Lipolysis was measured as follows. Human adipocytes were treated as described below and glycerol release into the culture medium was determined as an indicator for lipolysis using a one step enzymatic fluorometric method (19). After treatment medium was obtained, HClO4 was added for deproteinization.
# Agents that regulate calcium flux in adipocytes as noted above can mediate lipolysis. Human adipocytes (1 mL cells/well) were incubated in 24-well plates with different treatments for either 1 hour or 24 hours as indicated, and glycerol release into the culture medium was determined as an indicator for lipolysis using a one-step enzymatic fluorometric method. The media collected from 1 hr treatments were used directly for glycerol measurements. For 24 hr treatments, media were removed, and cells were washed with Hank's Balanced Salt Solution and incubated in fresh medium for a further 30 min. This media were then used for glycerol measurements for 24 hr treatments. After medium was collected, HClO4 was added to give a final concentration of 3% for deproteinization. The sample was centrifuged at 9000×g for 20 min. The supernatant was then collected and neutralized with 10N NaOH. Samples were stored at −80° C. prior to glycerol assay. Cells were collected, homogenized and stored at −80° C. for subsequent total protein correction by a modified Bradford method using Coomassie Blue dye (PIERCE, Rockford, Ill.).
# [2] = tested on: FAS activity in human adipocytes; assay: Fatty acid synthase (FAS) activity in human adipocytes
# human adipocytes [3] = assay: Triglyceride accumulation in human adipocytes; conditions: for triglyceride content: control 30.3±0.3
# Protocol: Human subcutaneous abdominal adipocytes were isolated from healthy patients undergoing cosmetic liposuction using methodology we have previously described. Briefly, the tissue was washed several times with Hank's Balanced Salt Solution, minced into small fragments and digested with type I collagenase (1 mg/mL) in a shaking water bath at 37° C. for 30-40 minutes. Cells were then filtered through a sterile nylon filter (500 μm mesh) and cultured in Dulbecco's Modified Eagle's Medium (DMEM) supplemented with 1% fetal bovine serum, 1% bovine serum albumin, 100 U/mL penicillin, 100 μg/mL streptomycin and 50 μg/mL gentamicin. Cells were subsequently cultured in suspension in sterile polypropylene flasks in a humidified 37° C./5% CO2 incubator. After one day, suspended (floating) adipocytes were transferred to fresh medium and maintained as a thin layer at the top of the culture medium to ensure access to nutrients. The cells were maintained for another 24 hours in this medium and then changed to fresh medium with the addition of SUR agonists (such as glibenclamide) for up to 48 hours with the compounds to be tested. Medium was changed every 24 hours, and cell viability was verified with trypan blue exclusion at the end of representative experiments.
# Stimulation of fatty acid synthase and concomitant inhibition of lipolysis results in increased lipid accumulation in human adipocytes. Adipocytes were treated as described above, harvested, and their triglyceride content was analyzed and normalized for protein content. […] Thus, these calcium-stimulated biochemical activities will contribute to the development of adipocyte hypertrophy and potentially obesity.
molecule,measurement,setting,value
"NC(=O)CC[C@@H]1NC(=O)[C@H](Cc2ccccc2)NC(=O)[C@H](Cc2ccc(O)cc2)NC(=O)[C@@H](N)CSSC[C@@H](C(=O)N2CCC[C@H]2C(=O)N[C@@H](CCCN=C(N)N)C(=O)NCC(N)=O)NC(=O)[C@H](CC(N)=O)NC1=O [AVP, arginine vasopressin]",inhibition of forskolin-induced lipolysis,"human adipocytes [1]; 1 nM AVP, short-term",56±6.6%
same,fatty acid synthase activity,[2]; 1 nM AVP,6.9±0.1 nmol/min/mg protein
insulin,fatty acid synthase activity,"[2]; 1 nM insulin, control 3.95±0.11",14.56±0.22 nmol/min/mg protein
CNc1ccc2oc(C[C@H]3O[C@@]4(CC[C@H]3C)O[C@H]([C@H](C)C(=O)c3ccc[nH]3)[C@H](C)C[C@H]4C)nc2c1C(=O)O [A23187],triglyceride accumulation,"human adipocytes [3]; two-hour exposure to 10 nM A23187, ensuing 48 hours, control 31.4±2.4",52±7 μg/mg protein
[Cl-].[K+] [KCl],"lipolysis, % of control levels","human adipocytes [1]; 10 mM KCl, twenty-four hour exposure",75.9±4.1%
same,inhibition of forskolin-induced lipolysis,"human adipocytes [1]; 25 mM KCl, short-term (one-hour)",42±5%
same,inhibition of forskolin-induced lipolysis,"human adipocytes [1]; 40 mM KCl, short-term (one-hour)",50±1.7%
same,fatty acid synthase activity,"[2]; 40 mM KCl for two hours, harvested approximately 72 hours later, control 3.93±0.11",6.24±0.2 nmol NADPH/min/mg protein
same,fatty acid synthase activity,"[2]; 40 mM KCl, control 2.87 (diazoxide experiment)",6.20±0.57 nmol/min/mg protein
same,triglyceride content,human adipocytes [3]; 40 mM KCl,43.5±0.5 μg/mg protein
CCOC(=O)C1=C(C)NC(C)=C(C(=O)OC)C1c1cccc([N+](=O)[O-])c1 (stereo not shown) [nitrendipine],fatty acid synthase activity,[2]; 1 nM insulin plus 30 μM nitrendipine,4.12 ± 0.03 nmol/min/mg
same,reduction in insulin-stimulated triglyceride accumulation,human adipocytes [3]; 1 nM insulin plus nitrendipine,40%
C=C[C@@]1(C)CC(=O)[C@]2(O)[C@@]3(C)[C@@H](O)CCC(C)(C)[C@@H]3[C@H](O)[C@H](OC(C)=O)[C@@]2(C)O1 [forskolin],increase in lipolysis,human adipocytes [1]; 1 μM forskolin,48%
"parathyroid hormone (peptide, UniProt P01270 32-115, looked up, Parathyroid hormone, stimulator of receptor-mediated Ca2+ influx) Parathyroid hormone: SVSEIQLMHNLGKHLNSMERVEWLRKKLQDVHNFVALGAPLAPRDAGSQRPRKKEDNVLVESHEKSLGEADKADVNVLTKAKSQ",fatty acid synthase activity,[2]; 4.8 nM PTH,6.9±0.1 nmol/min/mg protein
same,triglyceride content,human adipocytes [3]; 4.8 nM PTH,54.5±0.6 μg/mg protein
"agouti: recombinant agouti protein, purified agouti gene product from a baculovirus expression system (protein, UniProt Q03288 23-131, looked up) Agouti-signaling protein: HLALEETLGDDRSLRSNSSMNSLDFSSVSIVALNKKSKKISRKEAEKRKRSSKKKASMKKVARPPPPSPCVATRDSCKPPAPACCDPCASCQCRFFGSACTCRVLNPNC",decrease in basal lipolysis,"human adipocytes [1]; 100 nM recombinant agouti, 24 hr",60%
same,effect on basal lipolysis,"human adipocytes [1]; 100 nM recombinant agouti, short-term (1 hr)",no effect
same,forskolin-induced increase in lipolysis,human adipocytes [1]; 1 μM forskolin plus 100 nM agouti,reversed
same,ACTH-induced lipolysis,human adipocytes [1]; short-term agouti treatment,totally inhibited
